According to patent US9943499B2, “Lipase inhibitors for the treatment of pancreatitis and organ failure” (priority 2011, dated 2018):
“Also recorded” adds a separate entry of the source.

Tests used:
pancreatic acini = assay: Acinar-adipocyte co-culture; type: cell-based, mice
Source text: Harvesting cells: Primary acinar cells from wild type mice (C57B6) were harvested and used as described previously. Viability, confirmed by trypan blue exclusion, was >95%. […] These were used in the individual experiments. Data presented is representative of 3 or more experiments. Acinar-adipocyte co-culture: This was done in 12-well companion plates with cell culture inserts (FIG. 14). […] Serum and medium cytokine assays: These were done for TNF-α, MCP-1, IL-6, resistin, and adiponectin using the fluorescence-based capture sandwich immunoassay based on the Luminex FlowMetrix system (Luminex). The Milliplex Mouse Adipokine Panel (7-Plex) 1 kit from Millipore (Billerica, Mass.) was used. Samples were analyzed using the Bio-Plex suspension array system, which included a fluorescent reader and Bio-Plex Manager analytical software (Bio-Rad Laboratories, Hercules, Calif.) at the University of Pittsburgh, Cancer Institute Luminex Core Facility. Visceral fat triglyceride composition: The visceral fat triglyceride composition analysis was done at Kennedy Krieger Institute (Baltimore, Md.). Briefly, total lipids were extracted by the method of Folch. […] The fatty acids were derivatized and analyzed by GCMS as their pentafluorbenzylbromide esters. ATP levels, cytochrome C release, and % LDH leakage were measured as previously described. Apoptosis was measured by active caspase-3 [western blotting, activity assays (Enzcheck, Invitrogen, Carlsbad, Calif.)], TUNEL assays, and Hoechst dye nuclear incorporation (8 mg/ml Hoechst 33342 added for 15 minutes after treatment). […] Results were reported as % of cells with given nuclear changes. These were counter stained with PI (1 μM) to stain necrotic cells (FIG. 7A, B, C) and imaged with a Zeiss Meta dual fluorescence confocal microscope. PI-positive cells were counted as late apoptosis or necrosis. […] Autophagy was studied by western blotting for LC3-I and II. RNA was extracted using Trizol (Invitrogen, Carlsbad, Calif.). mRNA levels of TNF-α, CXCL1, and CXCL2 were measured as described previously using real time-PCR performed on an ABI Prism 7000 Sequence Detection System (Applied Biosystems, Foster City, Calif.) on proprietary Taqman Gene Expression assay reagents (Applied Biosystems). Mitochondrial complex assays and citrate synthase assay were done as described previously.

ob/ob mice = assay: IL12+18 pancreatitis model; type: in vivo; conditions: for pancreatic changes: fat necrosis, saponification, peri-fat acinar necrosis, acinar necrosis, hypocalcemia (gross, histologic, biochemical): orlistat 50 mg/kg every 12 hours from 2 hours after induction; for serum SFA levels: orlistat vs IL+Veh group
Source text: For histologic evaluation, we retrieved all hematoxylin and eosin-stained slides of the pancreas (1-4 in number) of control and acute pancreatitis patients. A trained pathologist with specific interest in gastrointestinal pathology blinded to demographic and clinical data examined the slides. Adipose tissue with large vessels and nerves not bounded by at least 2 pieces of pancreatic parenchyma was regarded as peripancreatic and excluded. The remaining adipose tissue, necrotic fat (bluish cheesy appearance of adipocytes), necrotic parenchyma, and parenchymal necrosis immediately contiguous to areas of fat necrosis (peri-fat acinar necrosis; PFAN) were additionally measured. All of these were measured as a percentage pixel area of each individual field after excluding dead space using Adobe Photoshop PS. The pixel areas of individual parameters for each case were added. The final number was divided by the number of fields to give a percentage area for that parameter in the section. For patients with more than 1 section, the average of the percentage of intrapancreatic fat for all fields from different sections was chosen as representative for the specimen. Von Kossa (to study fat necrosis, saponification), TUNEL (Terminal deoxynucleotidyl transferase dUTP nick end labeling), and oil red O staining were done per standard protocol.
Serum and medium cytokine assays: These were done for TNF-α, MCP-1, IL-6, resistin, and adiponectin using the fluorescence-based capture sandwich immunoassay based on the Luminex FlowMetrix system (Luminex). The Milliplex Mouse Adipokine Panel (7-Plex) 1 kit from Millipore (Billerica, Mass.) was used. Samples were analyzed using the Bio-Plex suspension array system, which included a fluorescent reader and Bio-Plex Manager analytical software (Bio-Rad Laboratories, Hercules, Calif.) at the University of Pittsburgh, Cancer Institute Luminex Core Facility.
Pancreatitis model: IL12+18 model: There were 8-12 animals in each group. Pancreatitis was induced as described previously in 8-10 week old female ob-ob (B6.V-Lepob/J) mice. Briefly, IL-12 (150 ng/dose/mouse) and IL-18 (750 ng/dose/mouse) were simultaneously given intraperitoneally in 2 doses, 24 hours apart. Orlistat at reduced dose than previously published (50 mg/kg) was administered in vehicle (0.1 ml 30% ethanol) as described previously. First injection of orlistat or vehicle was 2 hours after induction of pancreatitis, and these were then repeated every 12 hours.
Non-esterified fatty acid analysis: The sample was extracted with isopropanol-heptane-hydrochloric acid (1M) (40:10:1, v/v) by vortexing for 25-30 min and allowed to incubate at room temperature for 10 minutes. Heptane (4.0 ml) and water (2.0 ml) were added, and the tubes were thoroughly vortexed for 5 minutes. Tubes were centrifuged at 1000 g for 10 minutes at 4° C., and the upper phase (heptane) is transferred into 13×100 mm screw top tubes and dried in a SpeedVac centrifugal concentrator. Non-esterified fatty acids were derivatized with dimethylamine using the Deoxo-Fluor reagent. Non-esterified fatty acid concentrations are measured by gas chromatography separation with flame ionization detection using heptanoic acid as an internal standard. This derivatization method is very mild and efficient and is selective only towards non-esterified fatty acids so that no separation from a total lipid extract is required.

adipocytes = assay: Isoproterenol-stimulated glycerol release in adipocyte culture; type: cell-based
Male Wistar rats = assay: Intraductal infusion of glyceryl trilinoleate (GTL) pancreatitis; type: in vivo
Method: Experiments were performed using a model, the technique of which is established and well described in rats (1, 2, 4, 7). This involves infusion of agents into the pancreatic duct to cause acute pancreatitis (1, 2, 4, 7). We will refer to this technique as “intraductal infusion”. We compared the severity of pancreatic damage and survival of rats after intraductal infusion of Glyceryl trilinoleate with and without the lipase inhibitor orlistat. In addition, we used a different lipase inhibitor-cetilistat (3, 6), and studied its efficacy in improving survival of rats in intraductal infusion pancreatitis induced with Glyceryl trilinoleate (GTL).
Male Wistar rats (250-350 gm), were anesthetized. Intraductal infusion of 0.1 ml (n=5) or 0.2 ml (n=5) of GTL (Sigma-Aldrich corporation) alone or GTL+orlistat (Caymen chemical, Ann Arbor, Mich.) (75 mg/ml, 0.1 ml n=5 or 0.2 ml n=5) or GTL+cetilistat (Jinan Wedo Industrial Co., Ltd., Jinan City, Shandong China) (25 mg/ml, 0.2 ml, n=10) was done as described previously (1, 2, 4, 7). All animals were given pain control (buprenorphine 200 mcg/kg BID), Cefazolin (100 mg/kg), and 10 cc saline subcutaneously BID as per the IACUC protocol. These were followed for survival.

mouse melanoma model = conditions: Carvalho et al., Int. J. Cancer 2008; cited from earlier work
[1] = orlistat 50 μM, acini co-cultured with adipocytes
[2] = orlistat 50 mg/kg every 12 hours
[3] = in combination with GTL, at necropsy

CCCCCCCCCCC[C@@H](C[C@@H]1OC(=O)[C@H]1CCCCCC)OC(=O)[C@H](CC(C)C)NC=O [orlistat]
amylase secretory response to caerulein after co-culture (pancreatic acini; 50 μM orlistat, basal, 100 pM and 100 nM caerulein): amylase secretory pattern like control acini
resistin levels in the medium (pancreatic acini; 50 μM orlistat, co-culture): prevents increase in resistin
acinar cell viability and function (pancreatic acini; [1]): restored acinar cell viability and function to control levels
co-culture induced acinar cell changes (necrosis: propidium iodide positivity, drop in ATP levels, cytochrome c leakage; NEFA and resistin increase in medium) (pancreatic acini; [1]): completely prevented
serum amylase and lipase levels (ob/ob mice; compared with IL or IL+Veh groups): significantly reduced
lung injury (apoptotic cells, lung MPO levels) (ob/ob mice; [2]): significantly reduced
mortality (ob/ob mice; [2]): significantly reduced
renal end organ damage (BUN, tubular vacuoles, oil red O, TUNEL, mitochondrial swelling, saponification) (ob/ob mice; [2]): normalized
serum UFA levels (ob/ob mice; [2]): significantly reduced
serum resistin, TNF-α, MCP-1 and IL-6 (ob/ob mice; [2]): normalized
pancreatic changes: fat necrosis, saponification, peri-fat acinar necrosis, acinar necrosis, hypocalcemia (gross, histologic, biochemical) (ob/ob mice): prevents saponification
pancreatic changes: fat necrosis, saponification, peri-fat acinar necrosis, acinar necrosis, hypocalcemia (gross, histologic, biochemical) (ob/ob mice; listed as Orlistat): significantly blocked
renal end organ damage (BUN, tubular vacuoles, oil red O, TUNEL, mitochondrial swelling, saponification) (ob/ob mice; orlistat 50 mg/kg every 12 hours, listed as Orlistat): reduces these
serum SFA levels (ob/ob mice): not significantly reduced
serum SFA levels (ob/ob mice; listed as Orlistat): did not significantly reduce
10 μM isoprotrenol stimulated increase in glycerol levels (adipocytes; 50 μM orlistat, 1 hour adipocyte culture): not significantly prevented
permeability through cell membranes (adipocytes; inferred from glycerol release experiment): limited permeability; also recorded: low permeability
mortality (Male Wistar rats; dead/total, intraductal GTL alone, GTL+orlistat 75 mg/ml, GTL+cetilistat 25 mg/ml, followed to day 5): 0/10
lung injury (TUNEL positive nuclei) (Male Wistar rats; [3]): absence of TUNEL positive nuclei
renal injury (TUNEL positive nuclei) (Male Wistar rats; [3]): nearly completely prevented
lung injury (TUNEL positive nuclei) (Male Wistar rats; in combination with GTL, at necropsy, listed as Orlistat): nearly completely prevented
gross pancreatic appearance: hemorrhages and necrosis (Male Wistar rats; intraductal GTL with or without lipase inhibitor): prevented the hemorrhages and necrosis up to 5 days
apoptosis, cell growth and lymph node metastasis (mouse melanoma model): promote apoptosis and reduce cell grown and lymph node metastasis
